Earlier results as cited in patent US20150230971A1, “MULTIPURPOSE DRUG DELIVERY SYSTEMS FOR LONG-TERM IMPLANTATION OR INSERTION” (PAT&CO BVBA, priority 2012, published 2015).

Tested on: rats and mice
Details: carcinomas and/or precursor lesions of oral cavity, lips, tongue, esophagus, forestomach

C=COC(C)=O [VAM, vinyl acetate monomer]
carcinogenicity: increase in total malignant tumors
